# From patent US20100267561A1, “HERBICIDAL PYRIDAZINONE DERIVATIVES” (priority 2007, published 2010)
# Experiments:
# Assay type in all cases: in vivo
# [1] = system: bearded (Brdd.) sprangletop (Leptochloa fascicularis); experiment: Test D flooded paddy plant response; conditions: Flood, scale 0 to 100 (0 no effect, 100 complete control), 21 days
# From the text: (§1) Three plastic pots (ca. 16-cm diameter) for each application rate were partially filled with sterilized Tama silt loam soil comprising a 35:50:15 ratio of sand, silt and clay and 2.6% organic matter. Separate plantings for each of the three pots were as follows. Seeds from the U.S. of ducksalad (Heteranthera limosa), umbrella sedge (Cyperus difformis) and purple redstem (Ammannia coccinea), were planted into one 16-cm pot for each rate. Seeds from the U.S. of rice flatsedge (Cyperus iria), bearded (Brdd.) sprangletop (Leptochloa fascicularis), one stand of 9 or 10 water-seeded rice seedlings (Oryza sativa cv. ‘Japonica—M202’), and one stand of 6 transplanted rice seedlings (Oryza sativa cv. ‘Japonica—M202’) were planted into one 16-cm pot for each rate. Seeds from the U.S. of barnyardgrass (Echinochloa crus-galli), late watergrass (Echinochloa oryzicola), early watergrass (Echinochloa oryzoides) and junglerice (Echinochloa colona) were planted into one 16-cm pot for each rate. Plantings were sequential so that crop and weed species were at the 2.0 to 2.5-leaf stage at time of treatment.
# (§2) Potted plants were grown in a greenhouse with day/night temperature settings of 30/27° C., and supplemental balanced lighting was provided to maintain a 16-hour photoperiod. Test pots were maintained in the greenhouse until test completion.
# (§3) At time of treatment, test pots were flooded to 3 cm above the soil surface, treated by application of test compounds directly to the paddy water, and then maintained at that water depth for the duration of the test. Effects of treatments on rice and weeds were visually evaluated by comparison to untreated controls after 21 days. Plant response ratings, summarized in Table D, are based on a scale of 0 to 100 where 0 is no effect and 100 is complete control. A dash (-) response means no test result.
# [2] = system: transplanted rice seedlings (Oryza sativa cv. ‘Japonica—M202’); experiment: Test D flooded paddy plant response; conditions: Flood, scale 0 to 100 (0 no effect, 100 complete control), 21 days
# From the text: as §1, §2, §3
# [3] = system: rice flatsedge (Cyperus iria); experiment: Test D flooded paddy plant response; conditions: Flood, scale 0 to 100 (0 no effect, 100 complete control), 21 days
# From the text: as §1, §2, §3
# [4] = system: Russian thistle (Salsola kali); experiment: Test E pre-/postemergence plant response; conditions: Preemergence, scale 0 to 100
# Procedure, shortened: (§4)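 Seeds were planted and treated preemergence with compound formulated in a non-phytotoxic solvent mixture containing surfactant; postemergence sprays in the same formulation went onto plants 2 to 18 cm tall (1- to 4-leaf stage). After 14 to 21 days in a greenhouse, injury versus untreated controls was rated visually, 0 (no effect) to 100 (complete control).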
# [5] = system: common chickweed (Stellaria media); experiment: Test E pre-/postemergence plant response; conditions: Preemergence, scale 0 to 100
# Procedure, shortened: as §4
# [6] = system: prickly sida (Sida spinosa); experiment: Test E pre-/postemergence plant response; conditions: scale 0 to 100
# Procedure, shortened: as §4
# [7] = system: common sowthistle (Sonchus oleraceous); experiment: Test E pre-/postemergence plant response; conditions: scale 0 to 100
# Procedure, shortened: as §4
# [8] = system: Virginia (V.) dayflower (Commelina virginica); experiment: Test E pre-/postemergence plant response; conditions: scale 0 to 100
# Procedure, shortened: as §4
# kochia (Kochia scoparia) = experiment: Test E pre-/postemergence plant response; conditions: Preemergence, scale 0 to 100
# Procedure, shortened: as §4
smiles,measurement,setting,value
CCCc1cc(-c2ccc(Cl)cc2)nn1-c1c(O)cnn(C)c1=O [Compound 43],"Plant response rating, Sprangletop, Brdd.",[1]; 16 g ai/ha,0
same,"Plant response rating, Sprangletop, Brdd.",[1]; 32 g ai/ha,0
same,"Plant response rating, Sprangletop, Brdd.",[1]; 64 g ai/ha,0
same,"Plant response rating, Sprangletop, Brdd.",[1]; 125 g ai/ha,0
same,"Plant response rating, Sprangletop, Brdd.",[1]; 250 g ai/ha,20
same,"Plant response rating, Rice, Transplanted",[2]; 16 g ai/ha,0
same,"Plant response rating, Rice, Transplanted",[2]; 32 g ai/ha,0
same,"Plant response rating, Rice, Transplanted",[2]; 64 g ai/ha,0
same,"Plant response rating, Rice, Transplanted",[2]; 125 g ai/ha,10
same,"Plant response rating, Rice, Transplanted",[2]; 250 g ai/ha,35
same,"Plant response rating, Flatsedge, Rice",[3]; 16 g ai/ha,0
same,"Plant response rating, Flatsedge, Rice",[3]; 32 g ai/ha,0
same,"Plant response rating, Flatsedge, Rice",[3]; 64 g ai/ha,0
same,"Plant response rating, Flatsedge, Rice",[3]; 125 g ai/ha,0
same,"Plant response rating, Flatsedge, Rice",[3]; 250 g ai/ha,0
same,"Plant response rating, Thistle, Russian",[4]; 16 g ai/ha,0
same,"Plant response rating, Thistle, Russian",[4]; 31 g ai/ha,0
same,"Plant response rating, Thistle, Russian",[4]; 62 g ai/ha,0
same,"Plant response rating, Chickweed",[5]; 16 g ai/ha,0
same,"Plant response rating, Chickweed",[5]; 31 g ai/ha,0
same,"Plant response rating, Chickweed",[5]; 62 g ai/ha,0
same,"Plant response rating, Prickly Sida","[6]; 16 g ai/ha, Preemergence",0
same,"Plant response rating, Prickly Sida","[6]; 31 g ai/ha, Preemergence",0
same,"Plant response rating, Prickly Sida","[6]; 62 g ai/ha, Preemergence",0
same,"Plant response rating, Prickly Sida","[6]; Postemergence, 8 g ai/ha",0
same,"Plant response rating, Prickly Sida","[6]; Postemergence, 16 g ai/ha",0
same,"Plant response rating, Prickly Sida","[6]; Postemergence, 31 g ai/ha",0
same,"Plant response rating, Prickly Sida","[6]; Postemergence, 62 g ai/ha",0
same,"Plant response rating, Sowthistle","[7]; 16 g ai/ha, Preemergence",0
same,"Plant response rating, Sowthistle","[7]; 31 g ai/ha, Preemergence",0
same,"Plant response rating, Sowthistle","[7]; 62 g ai/ha, Preemergence",0
same,"Plant response rating, Sowthistle","[7]; Postemergence, 8 g ai/ha",0
same,"Plant response rating, Sowthistle","[7]; Postemergence, 16 g ai/ha",0
same,"Plant response rating, Sowthistle","[7]; Postemergence, 31 g ai/ha",0
same,"Plant response rating, Sowthistle","[7]; Postemergence, 62 g ai/ha",0
same,"Plant response rating, Dayflower, V.","[8]; 16 g ai/ha, Preemergence",0
same,"Plant response rating, Dayflower, V.","[8]; 31 g ai/ha, Preemergence",0
same,"Plant response rating, Dayflower, V.","[8]; 62 g ai/ha, Preemergence",0
same,"Plant response rating, Dayflower, V.","[8]; Postemergence, 8 g ai/ha",0
same,"Plant response rating, Dayflower, V.","[8]; Postemergence, 16 g ai/ha",0
same,"Plant response rating, Dayflower, V.","[8]; Postemergence, 31 g ai/ha",0
same,"Plant response rating, Dayflower, V.","[8]; Postemergence, 62 g ai/ha",0
same,"Plant response rating, Kochia",kochia (Kochia scoparia); 16 g ai/ha,0
same,"Plant response rating, Kochia",kochia (Kochia scoparia); 31 g ai/ha,0
same,"Plant response rating, Kochia",kochia (Kochia scoparia); 62 g ai/ha,0
CCOC(=O)Oc1cnn(C)c(=O)c1-n1nc(-c2ccc(Cl)cc2)cc1C [Compound 53],"Plant response rating, Thistle, Russian",[4]; 16 g ai/ha,0
same,"Plant response rating, Thistle, Russian",[4]; 31 g ai/ha,0
same,"Plant response rating, Thistle, Russian",[4]; 62 g ai/ha,0
same,"Plant response rating, Chickweed",[5]; 62 g ai/ha,0
same,"Plant response rating, Prickly Sida","[6]; 16 g ai/ha, Preemergence",0
same,"Plant response rating, Prickly Sida","[6]; 31 g ai/ha, Preemergence",0
same,"Plant response rating, Prickly Sida","[6]; 62 g ai/ha, Preemergence",0
same,"Plant response rating, Prickly Sida","[6]; Postemergence, 8 g ai/ha",0
same,"Plant response rating, Prickly Sida","[6]; Postemergence, 16 g ai/ha",0
same,"Plant response rating, Prickly Sida","[6]; Postemergence, 31 g ai/ha",0
same,"Plant response rating, Prickly Sida","[6]; Postemergence, 62 g ai/ha",0
same,"Plant response rating, Sowthistle","[7]; 16 g ai/ha, Preemergence",0
same,"Plant response rating, Sowthistle","[7]; 31 g ai/ha, Preemergence",0
same,"Plant response rating, Sowthistle","[7]; 62 g ai/ha, Preemergence",0
same,"Plant response rating, Sowthistle","[7]; Postemergence, 8 g ai/ha",0
same,"Plant response rating, Sowthistle","[7]; Postemergence, 16 g ai/ha",0
same,"Plant response rating, Sowthistle","[7]; Postemergence, 31 g ai/ha",0
same,"Plant response rating, Sowthistle","[7]; Postemergence, 62 g ai/ha",0
same,"Plant response rating, Dayflower, V.","[8]; 16 g ai/ha, Preemergence",0
same,"Plant response rating, Dayflower, V.","[8]; 31 g ai/ha, Preemergence",0
same,"Plant response rating, Dayflower, V.","[8]; 62 g ai/ha, Preemergence",0
same,"Plant response rating, Dayflower, V.","[8]; Postemergence, 8 g ai/ha",0
same,"Plant response rating, Dayflower, V.","[8]; Postemergence, 16 g ai/ha",0
same,"Plant response rating, Dayflower, V.","[8]; Postemergence, 31 g ai/ha",0
same,"Plant response rating, Dayflower, V.","[8]; Postemergence, 62 g ai/ha",0
same,"Plant response rating, Kochia",kochia (Kochia scoparia); 16 g ai/ha,0
same,"Plant response rating, Kochia",kochia (Kochia scoparia); 31 g ai/ha,0
